Assay results from patent US20230241088A1, “COMPOSITION FOR PREVENTING OR TREATING LUNG CANCER COMPRISING ORTHO-TOPOLIN RIBOSIDE AS ACTIVE INGREDIENT” (CHUNG-ANG UNIVERSITY INDUSTRY-ACADEMY COOPERATION FOUNDATION, priority 2022, published 2023).
Each block holds one compound with its values, some of them ahead of it.

Assays:
Format in all cases: cell-based, Human
[1] = system: H522; assay: MTT cell viability assay, H522
Procedure: (§1) Human NSCLC cell lines A549, H1437, H2087, H522, and HCC827 were obtained from the Korean Cell Line Bank (KCLB, Seoul, Korea). These cells were cultured in RPMI-1640 medium (Gibco, N.Y., USA) supplemented with 10% FBS (Gibco) and 1% penicillin-streptomycin (HyClone Laboratories, Logan, Utah, USA). All cell lines were cultured under standard conditions (5% CO2, humid environment, 37° C.). A549 cells were seeded at a density of 1×10^4 cells/well and H1437, H2087, H522, HCC827, and MRCS cells at a density of 2×10^4 cells/well in 96-well plates and were cultured until cells reach approximately 70-80% confluency. The NSCLC cells were treated with plant hormones for 48 hours. Stock solution of each plant hormone was diluted with culture medium, wherein concentrations of DMSO, water, methanol, and ethanol in the culture medium were below 1% (v/v). The half-maximal inhibitory concentration (IC50) was calculated using CompuSyn software (ComboSyn Inc., Paramus, N.J., USA).
(§2) The inhibitory effect of plant hormones and their derivatives was investigated on 5 NSCLC cell lines (A549, H1437, H2087, H522, and HCC827). The NSCLC cells were treated with ABA, Cor, ethephon, GR-24, IAA, KR, MJ, N6b, N6i, oTR, and SS-HCS at concentrations of 0.1, 0.5, 1, 5, 10, 50, and 100 μM. Cell viability and IC50 values for 48 hours were investigated by performing the MTT assay.

[2] = system: HCC827; assay: MTT cell viability assay, HCC827
Procedure: as §1, §2

[3] = system: A549; assay: MTT cell viability assay, A549
Procedure: as §1, §2

[4] = system: H1437; assay: MTT cell viability assay, H1437
Procedure: as §1, §2

[5] = system: H2087; assay: MTT cell viability assay, H2087
Procedure: as §1, §2

[6] = system: NSCLC cells; assay: MTT cell viability assay, NSCLC cells overall; details: Homo sapiens; 48 hours, MTT assay, 5 NSCLC cell lines
Procedure: as §1, §2

[7] = Homo sapiens, NCI-H522, 48 hours
[8] = Homo sapiens, NCI-H1437, 48 hours
[9] = Homo sapiens, NCI-H2087, 48 hours

IC50 [1, 7]: 73 ± 10.9 µM
IC50 ([2]; Homo sapiens, HCC827, 48 hours): 33.13 ± 0.14 µM
IC50 ([3]; Homo sapiens, A549, 48 hours): 12.3 ± 1.42 µM
IC50 [4, 8]: 76.8 ± 13.7 µM
IC50 [5, 9]: 98.5 ± 6.72 µM
Structure (SMILES): OC[C@H]1O[C@@H](n2cnc3c(NCc4ccco4)ncnc32)[C@H](O)[C@@H]1O [KR, Kinetin riboside]
IC50 [6]: < 100 µM

IC50 [1, 7]: > 100 µM
IC50 ([2]; Homo sapiens, HCC827, 48 hours): > 100 µM
IC50 ([3]; Homo sapiens, A549, 48 hours): > 100 µM
IC50 [4, 8]: > 100 µM
IC50 [5, 9]: > 100 µM
Structure (SMILES): CC/C=C\CC1C(=O)CCC1CC(=O)OC (stereo not shown) [MJ, methyl jasmonate]

IC50 ([1]; 48 hours): > 100 µM
IC50 ([2]; 48 hours): 72.3 ± 13.6 µM
IC50 ([3]; 48 hours): 87.5 ± 15.5 µM
IC50 ([4]; 48 hours): 34.7 ± 2.04 µM
IC50 ([5]; 48 hours): 85.4 ± 8.81 µM
Structure (SMILES): CC[C@@H](C(C)C)[C@@H](O)[C@H](O)[C@@H](C)[C@H]1CC[C@H]2[C@@H]3CC(=O)[C@H]4C[C@H](O)[C@H](O)C[C@]4(C)[C@H]3CC[C@]12C [SS-HCS, SS-homocastasterone]

Second part, the compound before the results:

Structure (SMILES): CC1=CC(=O)CC(C)(C)[C@@]1(O)/C=C/C(C)=C\C(=O)O [ABA, abscisic acid]
IC50 [1, 7]: > 100 µM
IC50 ([2]; Homo sapiens, HCC827, 48 hours): > 100 µM
IC50 ([3]; Homo sapiens, A549, 48 hours): > 100 µM
IC50 [4, 8]: > 100 µM
IC50 [5, 9]: > 100 µM

Structure (SMILES): CC[C@H]1C=C(C(=O)N[C@@]2(C(=O)O)C[C@@H]2CC)[C@H]2CCC(=O)[C@H]2C1 [Cor, coronatine]
IC50 ([1]; 48 hours): > 100 µM
IC50 ([2]; 48 hours): > 100 µM
IC50 ([3]; 48 hours): > 100 µM
IC50 ([4]; 48 hours): > 100 µM
IC50 ([5]; 48 hours): > 100 µM

Structure (SMILES): O=P(O)(O)CCCl [Ethephon, ethephon]
IC50 [1, 7]: > 100 µM
IC50 ([2]; Homo sapiens, HCC827, 48 hours): > 100 µM
IC50 ([3]; Homo sapiens, A549, 48 hours): > 100 µM
IC50 [4, 8]: > 100 µM
IC50 [5, 9]: > 100 µM

Structure (SMILES): CC1=C[C@H](O/C=C2/C(=O)O[C@@H]3c4ccccc4C[C@H]23)OC1=O [GR-24, Gerald Rosebery-24]
IC50 ([1]; 48 hours): > 100 µM
IC50 ([2]; 48 hours): > 100 µM
IC50 ([3]; 48 hours): > 100 µM
IC50 ([4]; 48 hours): > 100 µM
IC50 ([5]; 48 hours): > 100 µM

Structure (SMILES): OC[C@H]1O[C@@H](n2cnc3c(NCc4ccccc4)ncnc32)[C@H](O)[C@@H]1O [N^6b, N^6-benzyladenosine, reference compound]
IC50 [6]: < 100 µM
